What all share (type): functional
Assay [1] deals with T1, P2X purinoceptor 7 (Homo sapiens, UniProt Q99572).
T1 sequence (Q99572 whole entry): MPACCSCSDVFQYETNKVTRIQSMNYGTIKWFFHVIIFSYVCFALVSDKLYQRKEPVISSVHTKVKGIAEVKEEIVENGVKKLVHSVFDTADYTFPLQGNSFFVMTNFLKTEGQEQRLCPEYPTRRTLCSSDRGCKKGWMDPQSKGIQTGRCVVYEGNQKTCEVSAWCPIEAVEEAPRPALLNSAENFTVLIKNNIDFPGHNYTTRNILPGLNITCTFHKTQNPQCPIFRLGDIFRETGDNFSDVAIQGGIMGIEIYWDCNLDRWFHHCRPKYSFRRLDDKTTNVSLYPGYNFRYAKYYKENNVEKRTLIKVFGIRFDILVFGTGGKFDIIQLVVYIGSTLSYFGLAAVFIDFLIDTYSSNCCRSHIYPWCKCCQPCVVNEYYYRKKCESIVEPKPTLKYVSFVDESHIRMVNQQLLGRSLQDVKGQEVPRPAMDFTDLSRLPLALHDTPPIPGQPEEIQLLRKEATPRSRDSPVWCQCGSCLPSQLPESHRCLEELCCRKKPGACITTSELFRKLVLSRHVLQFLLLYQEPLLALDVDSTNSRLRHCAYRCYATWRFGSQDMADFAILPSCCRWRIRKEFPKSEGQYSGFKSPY
The assay is described as follows: Antagonist activity against recombinant human P2X purinoceptor 7 (P2X7).

The target in assay [2] is T2, P2X purinoceptor 4 (Homo sapiens, UniProt Q99571).
T2 sequence (Q99571 whole entry): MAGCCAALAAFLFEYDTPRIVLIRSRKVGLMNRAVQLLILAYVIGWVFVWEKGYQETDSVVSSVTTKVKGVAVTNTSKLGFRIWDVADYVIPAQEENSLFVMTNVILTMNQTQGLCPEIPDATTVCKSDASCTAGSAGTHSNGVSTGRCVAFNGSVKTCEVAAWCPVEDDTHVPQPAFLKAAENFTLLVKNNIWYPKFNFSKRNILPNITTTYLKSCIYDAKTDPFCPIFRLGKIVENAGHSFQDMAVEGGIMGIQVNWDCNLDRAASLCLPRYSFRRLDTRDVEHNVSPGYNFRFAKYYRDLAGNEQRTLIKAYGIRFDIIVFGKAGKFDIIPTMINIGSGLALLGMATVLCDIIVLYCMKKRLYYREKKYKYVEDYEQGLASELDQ
The assay is described as follows: Antagonist activity against recombinant human P2X purinoceptor 4 (P2X4).

Assay [3] deals with T3, P2X purinoceptor 1 (Rattus norvegicus, UniProt P47824).
T3 sequence (P47824 whole entry): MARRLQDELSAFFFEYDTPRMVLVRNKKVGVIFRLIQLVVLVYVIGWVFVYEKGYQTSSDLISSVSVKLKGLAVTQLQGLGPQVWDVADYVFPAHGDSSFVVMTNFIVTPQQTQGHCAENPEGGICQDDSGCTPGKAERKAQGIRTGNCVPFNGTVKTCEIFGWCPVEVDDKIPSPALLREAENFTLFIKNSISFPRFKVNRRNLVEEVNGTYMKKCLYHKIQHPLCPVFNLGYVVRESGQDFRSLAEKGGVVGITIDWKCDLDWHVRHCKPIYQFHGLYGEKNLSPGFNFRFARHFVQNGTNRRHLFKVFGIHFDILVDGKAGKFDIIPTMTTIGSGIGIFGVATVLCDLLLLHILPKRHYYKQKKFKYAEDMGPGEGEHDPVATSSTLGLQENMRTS
The assay is described as follows: The compound was evaluated for antagonist activity against recombinant rat P2X purinoceptor 1 (P2X1).

The target of assay [4] is T4, P2X purinoceptor 3 (Homo sapiens, UniProt P56373).
T4 sequence (P56373 whole entry): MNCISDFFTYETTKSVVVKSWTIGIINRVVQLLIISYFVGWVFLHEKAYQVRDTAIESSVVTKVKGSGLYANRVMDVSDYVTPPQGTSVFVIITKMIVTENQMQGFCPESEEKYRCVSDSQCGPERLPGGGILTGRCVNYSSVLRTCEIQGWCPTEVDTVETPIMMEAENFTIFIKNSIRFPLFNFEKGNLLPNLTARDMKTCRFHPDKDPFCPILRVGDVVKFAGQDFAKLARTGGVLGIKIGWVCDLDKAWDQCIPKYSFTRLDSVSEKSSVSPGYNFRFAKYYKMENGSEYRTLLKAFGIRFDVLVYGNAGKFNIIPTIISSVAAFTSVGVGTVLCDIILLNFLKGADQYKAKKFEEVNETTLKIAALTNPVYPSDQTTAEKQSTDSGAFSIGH
The assay is described as follows: The compound was evaluated for antagonist activity against recombinant human P2X purinoceptor 3 (P2X3 ).

Assay [5] addresses P2Y purinoceptor 6 (Homo sapiens, UniProt Q15077). Description: The compound was evaluated for agonist activity against phospholipase C coupled recombinant human P2Y purinoceptor 6 (P2Y6).
The target of assay [6] is P2Y purinoceptor 4 (Rattus norvegicus, UniProt O35811). The assay is described as follows: The compound was evaluated for antagonist activity against phospholipase C coupled recombinant rat P2Y purinoceptor 4 (P2Y4).
P2Y purinoceptor 4, sequence (O35811 whole entry): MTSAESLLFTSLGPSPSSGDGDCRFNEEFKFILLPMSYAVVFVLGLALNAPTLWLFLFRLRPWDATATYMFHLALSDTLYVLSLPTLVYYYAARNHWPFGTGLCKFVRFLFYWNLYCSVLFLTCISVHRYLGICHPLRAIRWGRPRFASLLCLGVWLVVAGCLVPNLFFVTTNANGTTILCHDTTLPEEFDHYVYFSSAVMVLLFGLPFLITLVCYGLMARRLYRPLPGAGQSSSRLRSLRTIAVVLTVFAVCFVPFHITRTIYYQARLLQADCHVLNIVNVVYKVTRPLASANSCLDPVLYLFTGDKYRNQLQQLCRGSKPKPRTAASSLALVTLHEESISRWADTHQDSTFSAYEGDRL
Assay [7] addresses T5, P2Y purinoceptor 11 (Homo sapiens, UniProt Q96G91).
T5 sequence (Q96G91 whole entry): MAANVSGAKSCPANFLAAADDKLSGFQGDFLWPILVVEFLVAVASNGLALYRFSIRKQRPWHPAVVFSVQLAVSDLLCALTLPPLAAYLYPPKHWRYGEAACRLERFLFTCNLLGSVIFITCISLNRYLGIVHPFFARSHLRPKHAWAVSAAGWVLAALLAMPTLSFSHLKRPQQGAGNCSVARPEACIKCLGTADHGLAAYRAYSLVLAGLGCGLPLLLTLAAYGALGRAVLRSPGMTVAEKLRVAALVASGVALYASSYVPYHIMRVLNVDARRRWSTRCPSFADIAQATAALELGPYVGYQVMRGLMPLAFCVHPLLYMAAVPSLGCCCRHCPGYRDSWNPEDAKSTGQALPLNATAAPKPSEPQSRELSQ
Description: Agonist activity against phospholipase C coupled human P2Y purinoceptor 11 (P2Y11).

Assay [8] concerns the target P2Y purinoceptor 1 (Homo sapiens, UniProt P47900). Description: Evaluated for agonist activity against phospholipase C coupled P2Y purinoceptor 1 (P2Y1) of human erythrocytes.
In assay [9] the target is P2Y purinoceptor 2 (Homo sapiens, UniProt P41231). Description: Evaluated for agonist activity against phospholipase C coupled recombinant human P2Y purinoceptor 2 (P2Y2).
P2Y purinoceptor 2, sequence (P41231 whole entry): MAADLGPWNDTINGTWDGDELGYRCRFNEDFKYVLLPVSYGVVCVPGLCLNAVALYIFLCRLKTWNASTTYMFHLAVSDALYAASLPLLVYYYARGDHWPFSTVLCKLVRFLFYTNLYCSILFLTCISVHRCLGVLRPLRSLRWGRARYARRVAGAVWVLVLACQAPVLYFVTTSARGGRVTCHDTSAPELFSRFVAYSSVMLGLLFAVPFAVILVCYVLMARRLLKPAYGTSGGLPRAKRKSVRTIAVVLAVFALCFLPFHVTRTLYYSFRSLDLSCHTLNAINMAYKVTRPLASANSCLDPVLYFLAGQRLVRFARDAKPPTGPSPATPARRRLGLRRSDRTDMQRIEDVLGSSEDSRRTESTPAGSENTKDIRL

Bounds are passed on as bounds.

P2Y purinoceptor 6, sequence (Q15077 whole entry): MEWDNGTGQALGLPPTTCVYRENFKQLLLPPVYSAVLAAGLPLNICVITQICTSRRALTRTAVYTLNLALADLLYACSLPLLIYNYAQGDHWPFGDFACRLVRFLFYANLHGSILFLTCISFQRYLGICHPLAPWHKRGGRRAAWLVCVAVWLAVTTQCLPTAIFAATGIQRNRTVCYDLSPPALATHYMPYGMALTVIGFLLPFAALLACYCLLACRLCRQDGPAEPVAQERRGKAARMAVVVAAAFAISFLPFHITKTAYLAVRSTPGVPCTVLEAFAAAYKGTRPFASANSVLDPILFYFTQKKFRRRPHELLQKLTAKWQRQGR
P2Y purinoceptor 1, sequence (P47900 whole entry): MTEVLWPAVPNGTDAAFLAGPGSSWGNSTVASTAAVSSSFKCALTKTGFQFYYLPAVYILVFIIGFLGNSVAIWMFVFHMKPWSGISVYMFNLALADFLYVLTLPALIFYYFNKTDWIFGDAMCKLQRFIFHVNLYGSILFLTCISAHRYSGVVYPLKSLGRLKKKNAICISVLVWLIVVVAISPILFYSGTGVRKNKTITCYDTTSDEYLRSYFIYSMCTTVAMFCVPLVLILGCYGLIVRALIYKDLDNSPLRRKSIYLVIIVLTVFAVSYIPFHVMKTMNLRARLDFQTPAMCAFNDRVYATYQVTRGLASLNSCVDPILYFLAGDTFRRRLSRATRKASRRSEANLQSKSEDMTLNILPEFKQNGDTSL

One may read the EC50 as the concentration needed to bring the measured effect to its halfway point. As for `CN([C@@H](Cc1ccc(OS(=O)(=O)c2cccc3cnccc23)cc1)C(=O)N1CCN(c2ccccc2)CC1)S(=O)(=O)c1cccc2cnccc12`, the EC50 in assay [1] is 34 nM; in [2], 100000 nM.
One may read the IC50 as the concentration at which inhibition is half-maximal. Take `Cc1nc(/N=N/c2cc(S(=O)(=O)O)ccc2S(=O)(=O)O)c(COP(=O)(O)O)c(C=O)c1O` [ISOPPADS]: the EC50 in assay [3] stood at 43 nM. Further, the IC50 in assay [4] came to 84 nM.
As to `O=c1ccn([C@@H]2O[C@H](COP(=O)(O)OP(=O)(O)OP(=O)(O)O)[C@@H](O)[C@H]2O)c(=O)[nH]1` [URIDINE TRIPHOSPHATE], the EC50 in assay [5] is 6000 nM; in assay [6], 2600 nM; in assay [7], above 100000 nM; in assay [8], above 100000 nM; in assay [9] it was 140 nM.
As to `O=c1ccn([C@@H]2O[C@H](COP(=O)(O)OP(=O)(O)O)[C@@H](O)[C@H]2O)c(=O)[nH]1` [URIDINE_DIPHOSPHATE], the EC50 in assay [5] is 300 nM; in [8], above 100000 nM; in assay [9], above 100000 nM.

(Values after ChEMBL document CHEMBL1135773, “Purine and pyrimidine (P2) receptors as drug targets” (J Med Chem, 2002).)
